Assay results: patent publication US20050137251A1, “Dexanabinol and dexanabinol analogs regulate inflammation related genes” (priority 2002, published 2005)

Tests used:
TNF-α secretion = TNF-α secretion in LPS activated macrophages; assay type: cell-based; conditions: Mus musculus, Macrophage, read-out: IC50 for inhibition of TNF-α secretion
Text: The technique used to quantify the amount of a given protein in a liquid sample, either tissue culture supernatant or body fluid, is based on Enzyme Linked ImmunoSorbent Assay (ELISA) methodology. Either commercially available or established in house, the assay is based on the capture of the protein of interest by specific antibodies bound to the bottom of an ELISA plate well. Unbound material is washed away, the captured protein is then exposed to a secondary antibody generally labeled with horseradish peroxidase (HRP) or alkaline phosphatase (ALP). Again the unbound material is washed away, the samples are then incubated with the appropriate substrate yielding a colorimetric reaction. The reaction is stopped and reading is carried out in a spectrophotometer at the appropriate wavelength. Samples are tested at least in duplicate and the appropriate standard curve, consisting of serial dilutions of the recombinant target protein, is incorporated on each plate. Concentration of the protein in the sample is calculated from the standard curve.
RAW 264.7 macrophages, a mouse cell line (ATCC # TIB 71), were grown in Dulbecco's modified Eagle's medium (DMEM) with 4 mM L-glutamine adjusted to contain 1.5 g/L sodium bicarbonate, 4.5 g/L glucose, and 10% heat inactivated fetal bovine serum. […]

iNOS gene expression = iNOS gene expression in MCAo mice brains; conditions: 5 mg/kg i.v., 18 hrs following MCAo
[1] = system: activated microglia cells; experiment: Activated microglia (F4/80 immunohistochemistry) in hippocampus of LPS injected mice brains; assay type: in vivo; conditions: 20 mg/kg, 72 hours after LPS
Experimental: The local i.c.v. injection of LPS in mice brain stimulates a wide range of inflammatory responses and cascades where various cytokines and chemokines are implicated. Following the results obtained in examples 3 and 4, we decided to assess the effect of additional active compounds of the invention on other genes involved in the inflammatory response. Specifically, we tested the impact of dexanabinol and PRS-211,092, both at 20 mg/kg, on the expression of pro-inflammatory IL-1β cytokine. The protocol was basically as previously described with minor modifications. The amount of LPS injected in the mice brain was raised to 250 ng and the animals were sacrificed 24 hours after LPS and treatment injection for mRNA analysis, carried out as previously described. Moreover, some animals were kept alive and sacrificed 72 hours after LPS and treatment injection for immunohistochemical analysis. For this purpose, after euthanizing the animals by injecting i.p. 100 mg/kg of sodium pentobarbitone, brains were removed and fixed in 4% formaldehyde for at least 72 hours. Brains were then washed with PBS and transferred for cryoprotection in a solution of 30% sucrose in PBS, until they sank. […] Quantitative analysis was carried out by counting the number of immunoreactive cells/mm^2 at the level of the hippocampus.

COX-2 gene expression [2] = experiment: COX-2 gene expression in LPS i.c.v. injected mice brains; assay type: in vivo; conditions: 20 mg/kg i.p., whole brain 6 hours after 100 ng LPS i.c.v.
COX-2 gene expression [3] = experiment: COX-2 gene expression in LPS stimulated RAW 264.7 cells, real-time RT-PCR; assay type: cell-based, mouse; conditions: 10 μM, 2.5 hrs after LPS activation
Experimental: (§1) RAW 264.7 macrophages, a mouse cell line (ATCC # TIB 71), were grown in Dulbecco's modified Eagle's medium (DMEM) with 4 mM L-glutamine adjusted to contain 1.5 g/L sodium bicarbonate, 4.5 g/L glucose, and 10% heat inactivated fetal bovine serum. Cells were grown in tissue culture flasks and seeded at appropriate density into 24 wells tissue culture plates. 0.5×10^6 Raw cells in one milliliter were stimulated with 2 μg/ml Lipopolysaccharide E. coli 055:B5 (DIFCO Laboratories). The mouse macrophages were pre-treated for one hour with controls or 10 μM of dexanabinol and its analogs, unless indicated otherwise, and later on activated with LPS.
The results of this experiment are expressed as fold activation of COX-2 over non-activated macrophages, after normalization to cyclophilin A expression. When cells are treated with vehicle only we observe a maximal 6-fold increase in COX-2 expression. A decrease of 67% in RNA levels of COX-2 is observed when the activation is carried out in presence of 10 μM dexanabinol.
To test if COX-2 is the sole gene whose transcription is affected by compounds of the invention, additional genes were further analyzed by real-time RT-PCR in the above-described model of activated macrophages. This part of the study was performed with PRS-211,092 at doses up to 20 μM.

PGE2 secretion = experiment: Inhibition of PGE2 secretion in LPS activated mouse macrophages (RAW 264.7); assay type: cell-based; conditions: RAW264.7, LPS activated RAW 264.7 cells
Experimental: The assay reproduces in vitro the true enzymatic activity, the test compounds, up to 10 μM, were preincubated for 5 minutes with purified COX-2, then the natural substrate AA was added and the reaction was allowed to proceed for 2 minutes. HCl was used to stop the enzyme catalysis and saturated stannous chloride was added to stabilize the PGH2 product into PGF2α.
as §1

CCCCCCC(C)(C)c1cc(O)c2c(c1)OC(C)(C)[C@H]1CC=C(CO)C[C@H]21 [dexanabinol, 1,1-dimethylheptyl-(3S,4S)-7-hydroxy-Δ^6-tetrahydrocannabinol]
IC50 (TNF-α secretion): 10 to 20 µM | Modulation of iNOS gene expression (iNOS gene expression): not modulated | Reduction of the amount of activated microglia vs vehicle [1]: 40% | Reduction in the level of COX-2 activation (COX-2 gene expression [2]): 53% | Decrease in RNA levels of COX-2 (COX-2 gene expression [3]): 67% | IC50 (PGE2 secretion): 10 µM
